Data on two compounds can be found in article PMC11564096, “Structural and mechanistic insights into Streptococcus pneumoniae NADPH oxidase” (Nature Structural & Molecular Biology, 2024).

What is called Km is the substrate concentration at which the rate is half of its maximum.

The target in experiment [1] is T1, SpNOX (Streptococcus pneumoniae NOX) (Streptococcus pneumoniae, UniProt Q8CZ28).
T1 construct: gene spr0531; residues 2-400, N-terminal 6xHis-PreScission tag cleaved, E. coli C41(DE3), LMNG micelles, monomer, 46 kDa, two b-type hemes and FAD
T1 sequence (Q8CZ28 2-400): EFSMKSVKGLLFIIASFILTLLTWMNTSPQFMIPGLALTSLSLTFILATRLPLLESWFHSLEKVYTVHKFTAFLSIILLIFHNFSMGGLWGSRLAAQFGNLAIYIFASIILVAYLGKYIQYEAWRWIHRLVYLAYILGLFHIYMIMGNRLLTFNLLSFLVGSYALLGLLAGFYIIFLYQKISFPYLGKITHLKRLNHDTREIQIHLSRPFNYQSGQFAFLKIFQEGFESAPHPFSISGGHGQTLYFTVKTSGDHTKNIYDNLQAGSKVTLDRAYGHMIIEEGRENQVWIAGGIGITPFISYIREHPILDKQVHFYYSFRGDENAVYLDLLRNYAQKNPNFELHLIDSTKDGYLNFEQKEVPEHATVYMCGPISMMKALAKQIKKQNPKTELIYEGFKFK
In kind it is binding. The settings on record: substrate-free, 1 mM FAD added; DH domain FAD site.

Experiment [2] deals with T1, SpNOX (Streptococcus pneumoniae NOX). Put plainly: cytochrome c reduction assay, absorbance at […] nm. Type of experiment: biochemical. Particulars: 100 µM bovine cytochrome c, 0.1 µM SpNOX, 1 µM FAD, 50 mM Tris pH 7.0, 250 mM NaCl, room temperature, aerobic; read-out: apparent KM.

The structures appear in SMILES notation.

As to `Cc1cc2nc3c(=O)[nH]c(=O)nc-3n(C[C@H](O)[C@H](O)[C@H](O)COP(=O)(O)OP(=O)(O)OC[C@H]3O[C@@H](n4cnc5c(N)ncnc54)[C@H](O)[C@@H]3O)c2cc1C` [FAD], in experiment [1], the “cryo-EM structure, 2.29 Å” value is reported as “A clear density for FAD was well resolved in all maps”. On to `NC(=O)C1=CN([C@@H]2O[C@H](COP(=O)(O)OP(=O)(O)OC[C@H]3O[C@@H](n4cnc5c(N)ncnc54)[C@H](OP(=O)(O)O)[C@@H]3O)[C@@H](O)[C@H]2O)C=CC1` [NADPH], for which the Km in experiment [2] was found to be 7.59 µM.
